According to US20090280069A1, “PROGUANIL TO TREAT SKIN/MUCOSAL DISEASES” (Tolmar, Inc., priority 2008, published 2009):

Experiments:
Assay type in all cases: cell-based
[1] = test system: Streptococcus agalactiae ATCC 49446; test: time kill assay, S. agalactiae (Group B)
Procedure: Streptococcus agalactiae (Group B) infections can lead to skin diseases such as erysipelas and cellulitis. A time kill assay was used to test the effects of varying concentrations of proguanil on a culture of Streptococcus agalactiae ATCC 49446. An inoculum of S. agalactiae was prepared and inoculated in vials containing Muller Hinton II broth and proguanil concentrations of 160, 80, 16, 8, and 1.6 μg/ml. A growth control using phosphate buffered saline A (PBSA) plus Mueller Hinton II broth was used in place of the drug because it has no antimicrobial effect. DGME was the solvent used to dissolve the proguanil, accordingly, 10% DGME was used as the solvent control. These inoculated broth solutions were then allowed to incubate for a period of 72 hours. Samples were taken at 0, 4, 24, 48 and 72 hours and spiral plated so the CFU/ml could be calculated. The effects of proguanil on the S. agalactiae were observed.

[2] = test system: Streptococcus equi subsp. equi ATCC 33398; test: time kill assay, S. equi (Group C)
Procedure: Streptococcus equi (Group C) infections can lead to skin diseases such as erysipelas and cellulitis. A time kill assay was used to test the effects of varying concentrations of proguanil on a culture of Streptococcus equi subsp. equi ATCC 33398. An inoculum of S. equi was prepared and inoculated in vials containing Mueller Hinton II broth and proguanil concentrations of 160, 80, 16, 8, and 1.6 μg/ml. A growth control using phosphate buffered saline A (PBSA) plus Mueller Hinton II broth was used in place of the drug because it has no antimicrobial effect. DGME was the solvent used to dissolve the proguanil, accordingly, 10% DGME was used as the solvent control. These inoculated broth solutions were then allowed to incubate for a period of 72 hours. Samples were taken at 0, 4, 24, 48 and 72 hours and spiral plated so the CFU/ml could be calculated. In the experiments, the effects of proguanil on the S. equi were observed.

[3] = test system: Candida albicans ATCC 10231; test: time kill assay, C. albicans
Procedure: A time kill assay was used to test the effects of varying concentrations of proguanil on a culture of Candida albicans ATCC 10231. An inoculum of C. albicans was prepared and inoculated in vials containing Muller Hinton II broth and proguanil concentrations of 1280, 640, 480, 320, 160 μg/ml. A growth control using phosphate buffered saline A (PBSA) plus Mueller Hinton II broth was used in place of the drug because it has no antimicrobial effect. DGME was the solvent used to dissolve the proguanil. Accordingly, 10% DGME was used as the solvent control. These inoculated broth solutions were then allowed to incubate for a period of 72 hours. Samples were taken at 0, 4, 24, 48 and 72 hours and spiral plated so the CFU/ml could be calculated.

[4] = all other concentrations (16, 8, 1.6 μg/ml)

## CC(C)NC(=N)NC(=N)Nc1ccc(Cl)cc1 [Proguanil, N-(4-Chlorophenyl)-N′-(1-methylethyl)imidodicarbonimidic diamide]
[1]; 80 μg/ml
  effect on CFU/ml: slight effect
[1]; 160 μg/ml
  effect on the bacteria: dramatic inhibition
[1]; 160 μg/ml, T=48 and 72 hours
  CFU/ml: 0 CFU/ml
[1]; Streptococcus agalactiae (Group B) ATCC 49446
  Relative Sensitivity (Compared to Other Strains Tested): Moderately
[1]; Streptococcus agalactiae (Group B) ATCC 49446, level at which partial or total inhibition of growth is observed
  Approximate Inhibitory Level: 160 µg/mL
[1]; [4]
  effect on CFU/ml: very similar and near the CFU/ml of the Mueller Hinton II broth control
[2]; 80 μg/ml, time zero to 72 hours
  effect on CFU/ml: only a slight increase in CFU/ml
[2]; 160 μg/ml
  effect on the bacteria: strong inhibition and killing
[2]; 160 μg/ml, T=48 and 72 hours
  CFU/ml: 0 CFU/ml
[2]; Streptococcus equi subspecies equi (Group C) ATCC 33398
  Relative Sensitivity (Compared to Other Strains Tested): Sensitive
[2]; Streptococcus equi subspecies equi (Group C) ATCC 33398, level at which partial or total inhibition of growth is observed
  Approximate Inhibitory Level: 80 to 160 µg/mL
[2]; [4]
  effect on CFU/ml: very similar and near the CFU/ml of the Mueller Hinton II broth control
[3]; 160 μg/ml, static from 24 to 72 hours
  CFU/ml: 80 CFU/ml
[3]; 320 μg/ml, 24 hour time point and later
  effect on C. albicans: completely killed
[3]; 1280 μg/ml, all time points 0-72 hours
  CFU counts: 0 CFU
[3]; 640 and 480 μg/ml, 4-72 hour time points
  effect on the yeast: killing all of the yeast
[3]; Candida albicans
  Relative Sensitivity (Compared to Other Strains Tested): Moderately
[3]; Candida albicans, level at which partial or total inhibition of growth is observed
  Approximate Inhibitory Level: 320 µg/mL
